For orientation: AUC means the area under the concentration-time curve, a measure of exposure. What is called Cmax is the highest concentration seen after dosing. The term Tmax denotes the time at which the peak concentration occurs.

Like-named read-outs stand apart in the source and are kept apart here.

The nature of data set [1]: Pharmacokinetics study of (+)/(−) epicatechin and their trigonelline (1:1) co-crystals, oral (Example 3). In kind it is in vivo. Conditions: rat, 10 mg/kg, male SD rats, 10 mpk equivalent of parent drug, vehicle CMC and Tween 80, plasma; for half-life: read-out: T½ elimination (converted). On the procedure: (§1) Co-crystals of the present invention were administered orally (PO) at a dose of 10 mpk equivalent of parent drugs in male SD rats. The PK results of the compound were compared with exposure of parent drugs. […] Blood samples were centrifuged at 10,000 rpm for 5 min. at 4° C. to obtain the plasma, which were aspirated into separate labelled tubes and stored at −80° C. Extraction solvent was added to plasma, was vortexed and shaken on shaker for 10 minutes, centrifuged at 10,000 rpm for 10 minutes at 4° C. Supernatant was kept for analysis.

Data set [2] in a line: Pharmacokinetics study of (+) epicatechin (SPR590) and its trigonelline (1:1) co-crystal (SPR515), oral (Example 4). The following applies: rat, plasma, male SD rats, CMC and Tween 80. In kind it is in vivo. On the procedure: as §1, with “mpk” for “mpk equivalent of parent drugs”, “rats for the control (+) epicatechin group and 10 mpk of SPR 515 which is equivalent to 6.25 mpk of epicatechin.” for “rats.”

For data set [3] the following is noted: average; male SD rats, PO, 14 mpk of Compound 109 (equivalent to 10 mpk epicatechin), vehicle 0.5% CMC. The method, then:
A pharmacokinetics study was carried out to evaluate the plasma exposure of D-proline co-crystals of (+) epicatechin (Compound 109). Co-crystals were administered orally (PO) at a dose of 14 mpk of Compound 109, which is equivalent to 10 mpk of epicatechin. The dosing vehicle that was used in this study was 0.5% CMC. After oral dosing, blood was collected by serial bleeding at different time points in heparinised tubes. Blood samples were centrifuged at 10,000 rpm for 5 min. at 4° C. to obtain the plasma, which were aspirated into separate labelled tubes and stored at −80° C. Extraction solvent was added to plasma, was vortexed and shaken on a shaker for 10 minutes, and then centrifuged at 10,000 rpm for 10 minutes at 4° C. Supernatant was kept for analysis. Acetonitrile and plasma calibration curves were generated and percentage of drug recovery from plasma determined. Quantitative analysis was done by liquid chromatography tandem mass spectrometer (API3000 LC-MS/MS). PK parameters were calculated using Graph Pad PRISM version 5.04 and the results are depicted in Table 7.

Setting [4] is: PO, dose 10 mpk (MW adjusted (+)-epicatechin dose: SPR590 10 mpk, SPR515 6.25 mpk).

For `Oc1cc(O)c2c(c1)O[C@H](c1ccc(O)c(O)c1)[C@H](O)C2` [Compound 107, (−) epicatechin], in data set [1], the AUC worked out at 0.678 µM·h, the Cmax was 386 nM, the Tmax was found to be 18 min and the half-life is 113 min.
With `Oc1cc(O)c2c(c1)O[C@@H](c1ccc(O)c(O)c1)[C@@H](O)C2` [Compound 108, (+) epicatechin], in data set [1], the area under the curve (AUC) was determined as 0.579 µM·h, the Cmax was determined as 333 nM, the Tmax was found to be 60 min and the half-life is 49.8 min. In data set [2] (setting [4]), the AUC was 0.678 µM·h and the highest level (Cmax) was 386 nM. In data set [2] (time point 0.16 h, PO 10 mpk (SPR515: equivalent to 6.25 mpk epicatechin), read-out: Plasma level), the concentration at 0.16 h came out at 236 nM. For the same compound, the concentration at 0.5 h in data set [2] (time point 0.5 h, PO 10 mpk (SPR515: equivalent to 6.25 mpk epicatechin), read-out: Plasma level) was determined as 338 nM. For the same compound, the concentration at 1 h in data set [2] (time point 1 h, PO 10 mpk (SPR515: equivalent to 6.25 mpk epicatechin), read-out: Plasma level) stood at 262 nM. In addition, the concentration at 2 h in data set [2] (time point 2 h, PO 10 mpk (SPR515: equivalent to 6.25 mpk epicatechin), read-out: Plasma level) came to 152 nM. For the same compound, the concentration at 4 h in data set [2] (time point 4 h, PO 10 mpk (SPR515: equivalent to 6.25 mpk epicatechin), read-out: Plasma level) was 24.1 nM. For the same compound, the concentration at 8 h in data set [2] (time point 8 h, PO 10 mpk (SPR515: equivalent to 6.25 mpk epicatechin), read-out: Plasma level) worked out at 0 nM.
In the case of `O=C(O)[C@H]1CCCN1.Oc1cc(O)c2c(c1)O[C@@H](c1ccc(O)c(O)c1)[C@@H](O)C2` [Compound 109, (+) Epicatechin_(D)-Proline (1:1) Co-Crystals], in data set [3], the AUC stood at 1.90533 µM·h, the Cmax came out at 778 nM, the Tmax turned out to be 45 min and the T½ elimination came out at 103 min.

(Values after patent publication US20210380535A1, “CO-CRYSTALS COMPRISING EPICATECHIN AND A CARBOXY-N-HETEROCYCLIC CO-CRYSTAL FORMER” (Epirium Bio Inc., priority 2018, published 2021).)
